Laboratory results reported in patent US9511073B2, “Aromatic amides and uses thereof” (TAXIS Pharmaceuticals, Inc., priority 2011, dated 2016).
Values after ≈ are worked out from the molar mass of the structure shown. Where two headings read alike, the source gives them in different places.

Columns and labels:
[1] = system: FtsZ-G196A Staphylococcus aureus (Isolate ID GG/190723/sa/1.2); assay: Bacterial assay: MIC, FtsZ G196A mutant strain; type: cell-based
Method: (§1) Compounds are tested for antimicrobial activity by susceptibility testing in liquid or on solid media. Minimum inhibitory concentrations (MICs) for compounds against each strain are determined by the broth microdilution or agar dilution method according to the guidelines of the Clinical Laboratories and Standards Institute, formerly the National Committee for Clinical Laboratory Standards (Clinical Laboratories and Standards Institute. Methods for Dilution Antimicrobial Susceptibility Tests for Bacteria That Grow Aerobically; Approved Standard—Seventh Edition. Document M7-A7. CLSI, Wayne, Pa., 2006; Clinical Laboratories and Standards Institute). The bacterial strains tested include S. aureus (Staphylococcus aureus (Isolate ID ATCC 29213)) and an FtsZ mutant of this isolate (FtsZ-G196A Staphylococcus aureus (Isolate ID GG/190723/sa/1.2)). Compound MICs were determined to be in the following activity ranges “A” activity≦0.25 μg/mL; “B” activity>0.25 μg/mL-1.0 μg/mL; “C” activity>1.0 μg/mL-16 μg/mL; “D” activity>16 μg/mL and ND=not determined. The bracketed entries indicate entantiomer(s) and their activity.
The comparative activity of selected compounds having a bromo-substituted oxazole against their corresponding non-brominated analogues is shown in Table 4.

[2] = system: Staphylococcus aureus (Isolate ID ATCC 29213); assay: Bacterial assay: MIC by broth microdilution or agar dilution (CLSI), S. aureus ATCC 29213; type: cell-based; details: Staphylococcus aureus
Method in brief: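 Activity is binned (A ≤0.25 μg/mL; B >0.25–1.0; C >1.0–16; D >16 μg/mL) from MICs determined per CLSI by broth microdilution or agar dilution, on S. aureus ATCC 29213 plus an FtsZ-G196A mutant strain.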

[3] = Pharmacokinetic assay: plasma concentration by LC/MS/MS after single intravenous or peroral dose of 3 mg/kg; type: in vivo; details: 3 mg/kg IV dosing in mice
Method: The pharmacokinetic profiles of selected comparator compounds A-N in Table 6 and compounds of the invention were determined by measuring the compound concentration in plasma by LC/MS/MS following a single intravenous or peroral administration of the compounds at a dose of 3 mg/kg. The concentrations described are the mean plasma concentrations at each time point from three animals. Intravenous dose formulation was administered as a single bolus dose through the tail vein. Oral dose formulation was administered to animals by an oral gavage needle. In both cases the dose volume was 5.0 mL/kg. Blood was collected from anesthetized mice through a capillary guided into the retro-orbital plexus. The collected blood was centrifuged to obtain plasma and the compounds extracted into methanol prior to determining the compound concentration by LC/MS/MS. The results are shown graphically in FIG. 1 and for the AUC and CL parameters in Table 6.

[4] = system: S. aureus ATCC 19636 (Smith); assay: MIC, staphylococcal panel; type: cell-based; details: Staphylococcus aureus, ATCC19636
Method: as §1
(§2) Selected compounds were also tested against a panel of target strains and their MICs are shown in Table 3 against the gold standard Linezolid. […] The activity of the compounds observed against S. aureus was also shown to be maintained within a narrow range across the staphylococcal panel tested.

[5] = system: S. lugdunensis ATCC 43809; assay: MIC, staphylococcal panel; type: cell-based; details: Staphylococcus lugdunensis, ATCC43809
Method: as §1, §2

[6] = system: S. warneri ATCC 49454; assay: MIC, staphylococcal panel; type: cell-based; details: Staphylococcus warneri, ATCC49454
Method: as §1, §2

[7] = system: S. saprophyticus ATCC 43809; assay: MIC, staphylococcal panel; type: cell-based; details: Staphylococcus saprophyticus, ATCC43809
Method: as §1, §2

[8] = system: S. epidermidis ATCC 12228; assay: MIC, staphylococcal panel; type: cell-based; details: Staphylococcus epidermidis, ATCC12228
Method: as §1, §2

[9] = system: S. hominis ATCC 27844; assay: MIC, staphylococcal panel; type: cell-based; details: Staphylococcus hominis, ATCC27844
Method: as §1, §2

[10] = system: S. haemolyticus ATCC 29970; assay: MIC, staphylococcal panel; type: cell-based; details: Staphylococcus haemolyticus, ATCC29970
Method: as §1, §2

[11] = system: S. aureus ATCC BAA-44 (MDRSA); assay: microbe, parasite or virus in culture; type: cell-based; details: Staphylococcus aureus, ATCCBAA44
Method: as §1, §2

[12] = system: S. aureus ATCC 43300 (MRSA); assay: microbe, parasite or virus in culture; type: cell-based; details: Staphylococcus aureus
Method: as §1, §2

[13] = read-out: MIC (μg/mL) FtsZ G196A mutant strain
[14] = ATCC29213, read-out: S. aureus MIC (μg/mL) Activity Range, S. aureus (ATCC29213)
[15] = read-out: MIC (μg/mL) G196A mutant strain
[16] = ATCC29213, read-out: MIC (μg/mL) S. aureus (ATCC29213), Table 5, racemate and enantiomers

SMILES	MIC [1, 13] [µg/mL]	MIC [2, 14] [µg/mL]	MIC [1, 15] [µg/mL]	MIC [2, 16] [µg/mL]	also measured
NC(=O)c1c(F)ccc(OC(CNC(=O)c2ccccc2)c2nc(-c3ccc(C(F)(F)F)cc3)co2)c1F (centres unmarked) [Compound 289, 3-(2-benzamido-1-(4-(4-(trifluoromethyl)phenyl)oxazol-2-yl)ethoxy)-2,6-difluorobenzamide]	> 256	1 to 16 (≈ 1.88 to 30.1 µM)			
COc1ccc(-c2nc([C@H](C)Oc3ccc(F)c(C(N)=O)c3F)oc2Br)cc1 [Compound 5A]		1 to 16 (≈ 2.21 to 35.3 µM)	> 256	16 (≈ 35.3 µM)	
NC(=O)c1c(F)ccc(OC(CO)c2nc(-c3ccc(F)cc3F)c(Br)o2)c1F (racemic) [Compound 233, 3-(1-(5-bromo-4-(2,4-difluorophenyl)oxazol-2-yl)-2-hydroxyethoxy)-2,6-difluorobenzamide]		< 0.25	8 (≈ 16.8 µM)	0.25 (≈ 0.526 µM)	clearance ([3]; mouse, plasma): 1.08 L/h/kg; AUC ([3]; mouse, plasma, read-out: AUC): 2.3 µg·h/mL; MIC [4]: 0.25 mg/L (≈ 0.526 µM); MIC [5]: 0.5 mg/L (≈ 1.05 µM); MIC [6]: 0.5 mg/L (≈ 1.05 µM); MIC [7]: 0.5 mg/L (≈ 1.05 µM); MIC [8]: 0.5 mg/L (≈ 1.05 µM); MIC [9]: 0.5 mg/L (≈ 1.05 µM); MIC [10]: 0.5 mg/L (≈ 1.05 µM); MIC [11]: 0.25 mg/L (≈ 0.526 µM); MIC [12]: 0.5 mg/L (≈ 1.05 µM); MIC ([2]; ATCC29213, Staphylococcus aureus ATCC 29213, Table 3 panel): 0.25 µg/mL (≈ 0.526 µM)
COc1ccc(-c2coc([C@@H](C)Oc3ccc(F)c(C(N)=O)c3F)n2)cc1 [Compound 268B]	> 256	1 to 16 (≈ 2.67 to 42.7 µM)			
CC(Oc1ccc(F)c(C(N)=O)c1F)c1nc(-c2ccc(C(F)(F)F)cc2)c(Br)o1 (centres unmarked) [Compound 27, 3-(1-(5-bromo-4-(4-(trifluoromethyl)phenyl)oxazol-2-yl)ethoxy)-2,6-difluorobenzamide]		< 0.25			AUC [3]: 2.2 µg·h/mL; CL [3]: 1.32 L/h/kg
COc1ccc(-c2nc(C(C)Oc3ccc(F)c(C(N)=O)c3F)oc2Br)cc1 (racemic) [Compound 5]		0.25 to 1 (≈ 0.552 to 2.21 µM)	32 (≈ 70.6 µM)	1 (≈ 2.21 µM)	
NC(=O)c1c(F)ccc(O[C@H](CO)c2nc(-c3ccc(F)cc3F)c(Br)o2)c1F [Compound 233B, (R)-3-(1-(5-bromo-4-(2,4-difluorophenyl)oxazol-2-yl)-2-hydroxyethoxy)-2,6-difluorobenzamide]		< 0.25	8 (≈ 16.8 µM)	0.25 (≈ 0.526 µM)	
COc1ccc(-c2nc([C@@H](C)Oc3ccc(F)c(C(N)=O)c3F)oc2Br)cc1 [Compound 5B]	16 (≈ 35.3 µM)	0.25 to 1 (≈ 0.552 to 2.21 µM)	16 (≈ 35.3 µM)	0.5 (≈ 1.1 µM)	
C[C@@H](Oc1ccc(F)c(C(N)=O)c1F)c1nc(-c2ccc(C(F)(F)F)cc2)co1 [Compound 183, (R)-2,6-difluoro-3-(1-(4-(4-(trifluoromethyl)phenyl)oxazol-2-yl)ethoxy)benzamide]	> 256	1 to 16 (≈ 2.43 to 38.8 µM)			
NC(=O)c1c(F)ccc(OC(CO)c2nc(-c3ccc(C(F)(F)F)cc3)c(Br)o2)c1F (racemic) [Compound 38, 3-(1-(5-bromo-4-(4-(trifluoromethyl)phenyl)oxazol-2-yl)-2-hydroxyethoxy)-2,6-difluorobenzamide]		< 0.25	4 (≈ 7.89 µM)	0.25 (≈ 0.493 µM)	AUC [3]: 6.7 µg·h/mL; clearance ([3]; mouse, plasma): 0.42 L/h/kg
COC(=O)NCC(Oc1ccc(F)c(C(N)=O)c1F)c1nc(-c2ccc(C(F)(F)F)cc2)c(Br)o1 (centres unmarked) [Compound 288, methyl (2-(5-bromo-4-(4-(trifluoromethyl)phenyl)oxazol-2-yl)-2-(3-carbamoyl-2,4-difluorophenoxy)ethyl)carbamate]	16 (≈ 28.4 µM)	0.25 to 1 (≈ 0.443 to 1.77 µM)			
CC(Oc1ccc(F)c(C(N)=O)c1F)c1nc(-c2ccc(OC(F)(F)F)cc2)c(Cl)o1 (centres unmarked) [Compound 21, 3-(1-(5-chloro-4-(4-(trifluoromethoxy)phenyl)oxazol-2-yl)ethoxy)-2,6-difluorobenzamide]		< 0.25			AUC [3]: 1.6 µg·h/mL; CL [3]: 1.86 L/h/kg
NC(=O)c1c(F)ccc(O[C@H](COC(=O)CCC(=O)O)c2nc(-c3ccc(C(F)(F)F)cc3)c(Br)o2)c1F [Compound 181, (R)-4-(2-(5-bromo-4-(4-(trifluoromethyl)phenyl)oxazol-2-yl)-2-(3-carbamoyl-2,4-difluorophenoxy)ethoxy)-4-oxobutanoic acid]		1 to 16 (≈ 1.65 to 26.3 µM)			clearance ([3]; mouse, plasma): 0.96 L/h/kg; AUC ([3]; mouse, plasma, read-out: AUC): 3 µg·h/mL
NC(=O)c1c(F)ccc(OC(CNC(=O)c2ccccc2)c2nc(-c3ccc(C(F)(F)F)cc3)c(Br)o2)c1F (centres unmarked) [Compound 292, 3-(2-benzamido-1-(5-bromo-4-(4-(trifluoromethyl)phenyl)oxazol-2-yl)ethoxy)-2,6-difluorobenzamide]	1 (≈ 1.64 µM)	< 0.25			
NC(=O)c1c(F)ccc(O[C@@H](CO)c2nc(-c3ccc(C(F)(F)F)cc3)c(Br)o2)c1F (single isomer, unassigned) [Compound 38A]		1 to 16 (≈ 1.97 to 31.5 µM)	64 (≈ 126 µM)	16 (≈ 31.5 µM)	clearance ([3]; mouse, plasma): 0.36 L/h/kg; AUC ([3]; mouse, plasma, read-out: AUC): 7.8 µg·h/mL
NC(=O)c1c(F)ccc(O[C@@H](CO)c2nc(-c3ccc(F)cc3F)c(Br)o2)c1F [Compound 233A, (S)-3-(1-(5-bromo-4-(2,4-difluorophenyl)oxazol-2-yl)-2-hydroxyethoxy)-2,6-difluorobenzamide]		> 16	> 256	32 (≈ 67.3 µM)	
COC(=O)NCC(Oc1ccc(F)c(C(N)=O)c1F)c1nc(-c2ccc(C(F)(F)F)cc2)co1 (centres unmarked) [Compound 287, methyl (2-(3-carbamoyl-2,4-difluorophenoxy)-2-(4-(4-(trifluoromethyl)phenyl)oxazol-2-yl)ethyl)carbamate]	> 256	> 16			
C[C@@H](Oc1ccc(F)c(C(N)=O)c1F)c1nc(-c2ccc(C(F)(F)F)cc2)c(Br)o1 [Compound 184, (R)-3-(1-(5-bromo-4-(4-(trifluoromethyl)phenyl)oxazol-2-yl)ethoxy)-2,6-difluorobenzamide]	0.5 (≈ 1.02 µM)	< 0.25			
CC(=O)NC[C@H]1CN(c2ccc(N3CCOCC3)c(F)c2)C(=O)O1 [Linezolid, reference compound]					MIC ([4]; S. aureus ATCC 19636 (Smith), read-out: MIC): 2 mg/L (≈ 5.93 µM); MIC ([5]; S. lugdunensis ATCC 43809, read-out: MIC): 1 mg/L (≈ 2.96 µM); MIC ([6]; S. warneri ATCC 49454, read-out: MIC): 2 mg/L (≈ 5.93 µM); MIC ([7]; S. saprophyticus ATCC 43809, read-out: MIC): 2 mg/L (≈ 5.93 µM); MIC ([8]; S. epidermidis ATCC 12228, read-out: MIC): 1 mg/L (≈ 2.96 µM); MIC ([9]; S. hominis ATCC 27844, read-out: MIC): 1 mg/L (≈ 2.96 µM); MIC ([10]; S. haemolyticus ATCC 29970, read-out: MIC): 1 mg/L (≈ 2.96 µM); MIC ([11]; S. aureus ATCC BAA-44 (MDRSA), read-out: MIC): 1 mg/L (≈ 2.96 µM); MIC ([12]; S. aureus ATCC 43300 (MRSA), read-out: MIC): 2 mg/L (≈ 5.93 µM); MIC ([2]; ATCC29213, Staphylococcus aureus ATCC 29213, Table 3 panel, read-out: MIC): 2 µg/mL (≈ 5.93 µM)
